In data set [1] the test system is IL6 release from the THP-1 acute leukemia cells. In words: IL6 release from LPS-treated THP-1 cells. The format is cell-based. To be noted: Homo sapiens, lipopolysaccharide treatment, then Compound 1 for 16 hours. Here is the method: Compound 1 was assessed for its ability to suppress the expression of NF-κB target genes in two experiments. In one experiment, THP-1 acute leukemia cell lines were exposed to lipopolysaccharide treatment and then Compound 1 for 16 hours. […] In the other experiment, the ability of Compound 1 to suppress both IL6 and ILIO expression in TMD8 ABC-DLBCL cells was investigated (data on file). TMD8 cells were incubated with DMSO or 1.6 μM Compound 1 for 6 or 24 hours. RNA was then extracted from the cells and quantified using qRT-PCR.

In data set [2] the test system is patients with myelofibrosis. In words: Initial human clinical data set, four patients (combination and monotherapy arms). The format is in vivo. The text has this:
Two myelofibrosis patients to enroll (Patients 245 and 246) received Compound 1 in combination with ruxolitinib and received 18 treatment cycles (11 months of treatment). The other two patients to enroll (Patients 247 and 248) received 10 cycles of Compound 1 as monotherapy (6 months of treatment). […] One of the patients who was transfusion dependent at study entry became transfusion independent (defined as >12 weeks without the need for a red blood cell (RBC) transfusion. Indeed, 7 months had elapsed since their last transfusion.
All four patients experienced an increase in their hemoglobin levels with multiple treatment cycles with Compound 1. In addition, one of the patients who entered the study with uncontrolled thrombocytosis (baseline platelets were 895×10^9/L) experienced a normalization of their platelet counts within the first month of monotherapy treatment with Compound 1. The patient's platelet counts remained normal for more than 20 weeks. This patient's thrombocytosis was also accompanied by severe headaches requiring multiple hospital admission. Following treatment with Compound 1, however, the patient's headaches were resolved. Brief narratives for all four patients treated for at least 6 months are presented below.
At entry into the study with Compound 1, their spleen volume by MRI was 1404 cc and was 12 cm by palpation. The patient presented with early satiety, night sweats, and dyspnea at the start of the study. […] The lowest spleen volume by MRI was 1144 cc, a 19% reduction, at the 6-month MM. The dose of ruxolitinib was reduced on Cycle 10 to 7.5 mg BID to address decreasing platelet count.
When Patient 246 initiated combination treatment with Compound 1 125 mg QD and ruxolitinib 10 mg BID their spleen volume was 607 cc by MRI and 2 cm by palpation and they required regular transfusions (2 units of RBC every 3-4 weeks).
The patient also presented with uncontrolled thrombocytosis at study entry (platelet count of 895×10^9/L at baseline) despite hydroxyurea. In addition, the patient had experienced persistent and debilitating headaches that required multiple hospital admissions for pain control. Their platelets were normalized after receiving their first two weeks of Compound 1 monotherapy (183 x10^9/L) and have remained within the normal range for the remainder of the time they have been on study (see FIG. 6). Within 2 months on Compound 1 monotherapy, the patient's severe headaches had resolved; their night sweats were less frequent; and a 37% reduction in symptoms was assessed by the Myeloproliferative Neoplasm Symptom (MNS) score. Their ECOG performance score decreased from 2 to 1 after two treatment cycles with CPI-0610 and a 25% decrease in spleen volume (640 cc) was assessed by MRI after 8 treatment cycles, the most recent measurement.
Their constitutional symptoms at study entry included fatigue, early satiety, and difficulty concentrating. […] The patient was reinitiated with a reduced Compound 1 dose of 175 mg at the beginning of Cycle 2, which has been tolerated for the remaining time on study (>6 months). While the patient's spleen has shown minimal change through palpation a spleen volume reduction of 11% (1023 cc) was measured by MRI after 3 months on treatment with Compound 1. Their MNS score improved 19% after 2 months on the 175 mg QD dose and after 6 months of Compound 1 treatment their bone marrow fibrosis grade decreased from MF-2 at baseline to MF-1 based on a local pathologist's assessment.

The text below walks through data of patent US12070464B2, “Methods of treating myeloproliferative disorders” (priority 2019, dated 2024).

Structures are written as SMILES.

Usually IC50 stands for the midpoint of a concentration-inhibition curve. Higher therefore signals lower potency. In turn, `Cc1noc2c1-c1ccccc1C(c1ccc(Cl)cc1)=N[C@H]2CC(N)=O` [Compound 1, 2-((4S)-6-(4-chlorophenyl)-1-methyl-4H-benzo[c]isoxazolo[4,5-e]azepin-4-yl)acetamide] returned an IC50 in data set [1] of 0.069 µM. In data set [2] (Patient 245, 6-month MRI, with ruxolitinib), the spleen volume reduction stood at 19%. The “lowest spleen volume by MRI” value in data set [2] (Patient 245, 6-month MRI, with ruxolitinib, 1404 cc at entry) was determined as 1144 cc. In addition, in data set [2] (Patient 245, after 4 weeks of therapy with Compound 1 and ruxolitinib, 12 cm before), the spleen size amounted to 5 cm. In addition, the spleen by palpation in data set [2] (Patient 245, within 4 months, Compound 1 125 mg QD and ruxolitinib 15 mg BID, 12 cm at entry) worked out at 5 cm. For the same compound, in data set [2] (Patient 246, Compound 1 125 mg QD titrated to 175 mg QD and ruxolitinib 10 mg BID, TI = >12 weeks without transfusion and hemoglobin >8 g/dL), the “time to transfusion independence” value is recorded as not above 7 months. Also, the “reduction in spleen volume” value in data set [2] (Patient 246, by Cycle 12, with ruxolitinib) was determined as 37%. Moreover, in data set [2] (Patient 246, by Cycle 12, with ruxolitinib, 607 cc at start), the spleen volume was 380 cc. In addition, the “most recent hemoglobin measurement” value in data set [2] (Patient 246, with ruxolitinib) amounted to 10.9 g/dL. The “decrease in spleen volume by MRI” value in data set [2] (Patient 247, after 8 treatment cycles, monotherapy) was 25%. For the same compound, the “spleen volume by MRI” value stood at 640 cc in data set [2] (Patient 247, after 8 treatment cycles, monotherapy, 858 cc at entry) and 1023 cc in data set [2] (Patient 248, after 3 months, monotherapy, 1148 cc at entry). In addition, the platelets in data set [2] (Patient 247, after first two weeks of monotherapy, 895×10^9/L at baseline) stood at 1.83e+11 L⁻¹. Besides, in data set [2] (Patient 247, after two treatment cycles, from 2, monotherapy), the ECOG performance score came to 1. Moreover, the “reduction in symptoms by Myeloproliferative Neoplasm Symptom (MNS) score” value in data set [2] (Patient 247, within 2 months, monotherapy) was found to be 37%. For the same compound, in data set [2] (Patient 248, 175 mg from Cycle 2), the “time reduced dose has been tolerated” value is more than 6 months. In addition, the MNS score improvement in data set [2] (Patient 248, after 2 months on 175 mg QD) is given as 19%. Moreover, the “spleen volume reduction by MRI” value in data set [2] (Patient 248, after 3 months, monotherapy) was found to be 11%. Further, the “hemoglobin level after treatment” value is “about 10.9 g/dl” in data set [2] (from about 8 g/dl, FIG. 5); “about 11.5 g/dL” in data set [2] (patients 247 and 248, from about 8 g/dL). For the same compound, the “tolerability of starting dose” value in data set [2] (human, in vivo) was “did not tolerate”. For the same compound, in data set [2] (patient who was transfusion dependent at study entry), the “time elapsed since last transfusion” value is given as 7 months. Further, the “time platelet counts remained normal” value in data set [2] (patient with uncontrolled thrombocytosis (Patient 247), monotherapy) is given as “more than 20 weeks”.
